Measured values published in US7476729B2, “Dbait and uses thereof” (Institut Curie, priority 2003, dated 2009).

Legend:
DNA-PK = biological target: T1, DNA-PK (Homo sapiens, UniProt P12956+P13010+P78527); assay: DNA-dependent protein kinase (DNA-PK) activity assay in Hep2 nuclear extract; type: biochemical; settings: 2 μg Dbait, 1.5 μg Hep2 nuclear protein extract
T1 construct: Increasing amounts of Hep2 nuclear extract (cleaned of endogenous DNA by DEAE-Sepharose filtration) were assayed; endogenous in cells; host or cells: Hep2 cells (nuclear extract, DNA removed by DEAE-Sepharose filtration)
Description: DNA-PK activity was monitored using the kit SignaTECT DNA-dependent Protein Kinase Assay System (Promega, Madison, USA). Increasing amounts of Hep2 nuclear extract (cleaned of endogenous DNA by DEAE-Sepharose filtration) were assayed in the presence of 250 nM Dbait. Extract, biotinylated peptide substrate and various amount of nuclear extract were incubated 5 minutes at 30° C. with (γ-^32P)ATP according to manufacturer indications. The biotinylated substrate was capture on streptavidine membrane, washed and counted in a scintillation counter. Percentage of phosphorylation is calculated by dividing the bound radioactivity by the total count of (γ-^32P)ATP per sample. Reactions (10 μl) were carried out in 60 mM KOAc, 100 μg/ml BSA, 0.5 mM Mg(Cl)2, 1 μl T4 DNA ligase 10× buffer (Promega, Madison, USA). Nuclear extract and Dbait were incubated 2 minutes before addition of ^32P-labeled DNA (10 ng). Samples were incubated various time at 37° C. before ligation being stopped by 20 mM EDTA and 1 mg/ml Proteinase K addition. Ligation products were analyzed by electrophoresis through 0.7% agarose gels followed by autoradiography and quantification by phosphorimaging.
The kinase activity depended directly on the length and structure of the double-stranded ‘stem’ of the Dbait molecule. […] In addition, various backbone modifications (phosphothioate, methyphosphonate, 3′-3′ linkage) at the free blunt end (up to 3-bp), as well as the internally tagged ligands (e.g. fluorescent dyes), are capable of activating DNA-PK activity.

[1] = tested on: radiation-enhanced illegitimate integration of a plasmid in Hela cells; assay: Inhibition of radiation-enhanced illegitimate integration of exogenous DNA; type: cell-based, human; settings: for radiation-enhanced illegitimate integration of plasmid (puromycin resistance): 2 μg Dbait, fractionated 4×0.5 Gy irradiation
Description: Exponentially growing cells in six-well plates were harvested and incubated with […] of complete DMEM containing a mixture of Dbait molecules and Superfect reagent (Qiagen, Courtaboeuf, France) in a ratio of 10 μl Superfect per μg DNA. After 5 h at 37° C. under standard conditions, the cells were washed with PBS and complete DMEM was added. Where indicated, cells were exposed to irradiation either in one session (10 Gy) 5 h after the beginning of transfection or in four sessions of 0.5 Gy administered with a ^137Cs unit (1 Gy/min) 3, 4, 5 and 6 h after the beginning of transfection and allowed to grow for two weeks. When plasmid integration was measured, 2 μg of plasmid was added to Dbait transfection and puromycin (1.7 μg/ml) was added to the growth medium 48 h after transfection. Plasmid transfection efficiency was estimated by analyzing 10,000 cells for GFP expression on a FACScan flow cytometer (FACSalibur, Beckton-Dickinson, USA).
Ionizing radiation is known to improve illegitimate integration of exogenous DNA, a process termed radiation-enhanced integration. Hela cell culture was used for this assay. Cells were transfected during 8 hours by 2 μg of a linear plasmid carrying the gene coding for neomycin resistance, and three different ratio of DNA/superfect (1:2, 1:5, 1:10). During transfection time, the cells were exposed to different irradiation protocols: no irradiation, one single irradiation of 1 Gy and 2 Gy, as well as a 2 Gy irradiation delivered by fractionated doses of 0.5 Gy every 2 hours (4×0.5 Gy). The integration of the plasmid was monitored by selection of Neo^R cells growing in a medium containing 0.6 mg/ml of G418. […] When 2 μg of Dbait32H (SEQ ID NO: 1) molecules were added to the transfection mix, the radiation-enhanced integration was abolished (FIG. 2.3).
Wortmann (Wort) and NU7026 (NU) which are known inhibitors of PI3K (including DNA-PK) were used as control.

Substance | DNA-PK activation (kinase activity) (DNA-PK) | radiation-enhanced illegitimate integration of plasmid (puromycin resistance) [1] | radiation-enhanced integration of linear plasmid (neomycin resistance) ([1]; Hela, 2 μg Dbait added to transfection mix, 4×0.5 Gy)
Dbait8H: hairpin double strand DNA with a stem of 8-bp (DNA ACGCACGG; DNA, backbone not given here; hairpin, hexaethyleneglycol loop, 3-bp phosphorothioate at free blunt end) | inefficient | not effective | 
Dbait16H: hairpin double strand DNA with a stem of 16-bp (DNA ACGCACGGGTGTTGGG; DNA, backbone not given here; hairpin DNA with hexaethyleneglycol loop, 3-bp phosphorothioate at free blunt end) | inefficient | not effective | 
Dbait32H: hairpin double strand DNA with a stem of 32-bp, hexaethyleneglycol linker, phosphorothioate at the free blunt end (DNA ACGCACGGGTGTTGGGTCGTTTGTTCGGATCT; DNA, backbone not given here; hairpin, hexaethyleneglycol loop, 3-bp phosphorothioate at free blunt end) |  | capable of inhibiting | abolished
Dbait32ss: 32-nt single strand DNA (SEQ ID NO: 1) (DNA ACGCACGGGTGTTGGGTCGTTTGTTCGGATCT; DNA, backbone not given here) |  | not effective | 
